In the supplement of paper PMC8882468:
± gives the standard deviation of the averaged measurements.

Experiments:
Assay in all cases: CTG-3D luminescence at 96 h relative to day-0 seeding control (ratio to day 0); higher = more growth / less cytotoxicity; PDxO 3D drug screen, 96 h, CTG-3D normalised to day-0 seeding control.
HCI-017.E2 = test system: HCI-017.E2 (organoid from an ER-positive breast cancer xenograft)
HCI-005.E2 = test system: HCI-005.E2 (organoid from a breast cancer xenograft with a HER2-positive history)
HCI-024 = test system: HCI-024 (organoid from a breast cancer xenograft)
HCI-001 = test system: HCI-001 (organoid from a triple-negative breast cancer xenograft)
HCI-003.E2 = test system: HCI-003.E2 (organoid from an ER-positive breast cancer xenograft)
HCI-012 = test system: HCI-012 (organoid from a breast cancer xenograft)

O=C(c1ccc(F)c(F)c1Nc1ccc(I)cc1F)N1CC(O)([C@@H]2CCCCN2)C1 [cobimetinib]
CTG-3D luminescence at 96 h
Conditions | 12.5 pM | 0.00025 µM | 0.005 µM | 0.1 µM | 1 µM | 10 µM | 100 µM | 625 fM
HCI-003.E2 | 2.11 ± 0.75 | 2.48 ± 0.68 | 1.98 ± 0.5 | 2.18 ± 0.35 | 1.66 ± 0.39 | 1.64 ± 0.61 | 0.00926 ± 0.011 | 1.93 ± 0.51
HCI-005.E2 | 1.55 ± 0.54 | 1.65 ± 0.22 | 1.32 ± 0.1 | 1.05 ± 0.23 | 0.579 ± 0.038 | 0.594 ± 0.092 | 0.00269 ± 0.0047 | 1.63 ± 0.37
HCI-017.E2 | 1.77 ± 0.36 | 2.11 ± 0.29 | 2.18 ± 0.27 | 1.89 ± 0.2 | 1.889 ± 0.0077 | 1.57 ± 0.049 | 0.00898 ± 0.0081 | 2.01 ± 0.47

CTG-3D luminescence at 96 h
Conditions | 12.5 pM | 0.00025 µM | 0.005 µM | 0.1 µM | 1 µM | 10 µM | 100 µM | 625 fM
HCI-001, days in culture: 240 | 1.59 | 1.08 | 1.09 | 1.08 | 1.32 | 0.812 | 0.00168 | 1.41
HCI-001, days in culture: 260 | 2.44 | 1.15 | 1.46 | 1.28 | 1.58 | 1.5 | 0.00186 | 1.87
HCI-001, days in culture: 269 | 1.48 | 1.58 | 1.56 | 1.49 | 1.26 | 1.83 | -0.00203 | 1.53
HCI-001, days in culture: 327 | 1.36 | 1.44 | 1.72 | 1.75 | 1.43 | 1.04 | 0.00317 | 1.52
HCI-001, days in culture: 346 | 1.24 | 1.22 | 1.07 | 1.14 | 1.13 | 1.22 | -7.73e-05 | 1.11
HCI-001, days in culture: 364 | 1.35 | 1.27 | 1.3 | 0.986 | 0.9 | 0.905 | 0.000378 | 1.51
HCI-012, days in culture: 143 | 1.73 | 1.86 | 1.88 | 1.87 | 1.57 | 0.758 | -0.00459 | 1.71
HCI-012, days in culture: 162 | 2.44 | 2.1 | 1.91 | 2.85 | 1.59 | 1.45 | 0.00171 | 2.91
HCI-012, days in culture: 201 | 2.69 | 1.53 | 1.69 | 1.91 | 2.24 | 1.02 | -0.00449 | 1.35
HCI-017.E2, days in culture: 85 | 3.27 | 2.34 | 2.34 | 2.15 | 1.65 | 2.15 | 0.017 | 2.45
HCI-024, days in culture: 105 | 1.71 | 1.74 | 1.38 | 1.36 | 0.803 | 0.316 | -0.00552 | 2.08
HCI-024, days in culture: 122 | 2.66 | 2.28 | 2.13 | 1.03 | 0.873 | 0.979 | -0.000547 | 3.01
HCI-024, days in culture: 163 | 1.51 | 2.19 | 1.89 | 2.26 | 1.17 | 0.872 | -0.0079 | 2.15

CCN(c1cc(C#CCN2CCOCC2)cc(C(=O)NCc2c(C)cc(C)[nH]c2=O)c1C)[C@H]1CC[C@H](N(C)CCOC)CC1
CTG-3D luminescence at 96 h
Conditions | 12.5 pM | 0.00025 µM | 0.005 µM | 0.1 µM | 1 µM | 10 µM | 100 µM | 625 fM
HCI-003.E2 | 1.84 ± 0.67 | 2.12 ± 0.78 | 1.71 ± 0.35 | 1.96 ± 0.49 | 1.74 ± 0.4 | 1.89 ± 0.95 | 0.658 ± 0.5 | 1.65 ± 0.4
HCI-005.E2 | 1.1 ± 0.23 | 1.52 ± 0.39 | 1.38 ± 0.23 | 1.82 ± 0.34 | 1.14 ± 0.16 | 1.22 ± 0.23 | 1.29 ± 0.23 | 1.34 ± 0.22
HCI-017.E2 | 1.57 ± 0.12 | 1.65 ± 0.21 | 1.91 ± 0.021 | 1.81 ± 0.1 | 1.72 ± 0.17 | 2.01 ± 0.46 | 1.5 ± 0.8 | 2.01 ± 0.32

CTG-3D luminescence at 96 h
Conditions | 12.5 pM | 0.00025 µM | 0.005 µM | 0.1 µM | 1 µM | 10 µM | 100 µM | 625 fM
HCI-001, days in culture: 240 | 1.66 | 1.2 | 1.34 | 1.12 | 1.48 | 1.35 | 1.6 | 1.15
HCI-001, days in culture: 260 | 2.3 | 1.19 | 2.11 | 1.83 | 1.85 | 1.89 | 1.19 | 1.77
HCI-001, days in culture: 269 | 1.6 | 1.57 | 1.22 | 1.27 | 1.24 | 1.91 | 1.29 | 1.58
HCI-001, days in culture: 327 | 2.1 | 1.96 | 2.09 | 1.94 | 1.79 | 1.53 | 2.14 | 2.05
HCI-001, days in culture: 346 | 1.71 | 1.33 | 1.21 | 1.4 | 1.5 | 1.62 | 1 | 1.32
HCI-001, days in culture: 364 | 1.74 | 1.34 | 1.76 | 1.19 | 1.17 | 1.85 | 1.41 | 1.88
HCI-012, days in culture: 143 | 1.91 | 2.56 | 2.37 | 2.99 | 3.02 | 3.17 | 0.606 | 1.86
HCI-012, days in culture: 162 | 2.51 | 2.39 | 1.97 | 2.73 | 2.39 | 3.19 | 1.69 | 2.39
HCI-012, days in culture: 201 | 2.85 | 2.09 | 1.92 | 2.18 | 2.33 | 1.83 | 2.37 | 1.64
HCI-017.E2, days in culture: 85 | 1.88 | 2.36 | 2.01 | 2.07 | 1.45 | 1.61 | 1.9 | 1.77
HCI-024, days in culture: 105 | 1.44 | 1.62 | 1.27 | 1.53 | 1.77 | 2.22 | 1.53 | 1.42
HCI-024, days in culture: 122 | 1.71 | 2.29 | 2.04 | 1.85 | 2.34 | 3.46 | 1.5 | 2.18
HCI-024, days in culture: 163 | 1.65 | 2.26 | 1.77 | 2.62 | 2.29 | 2.35 | 1.91 | 1.9

CC1(C)CCC(c2ccc(Cl)cc2)=C(CN2CCN(c3ccc(C(=O)NS(=O)(=O)c4ccc(N[C@H](CCN5CCOCC5)CSc5ccccc5)c(S(=O)(=O)C(F)(F)F)c4)cc3)CC2)C1 [navitoclax]
CTG-3D luminescence at 96 h
Conditions | 12.5 pM | 0.00025 µM | 0.005 µM | 0.1 µM | 1 µM | 10 µM | 100 µM | 625 fM
HCI-003.E2 | 1.98 ± 0.72 | 2.09 ± 0.83 | 1.64 ± 0.31 | 2.22 ± 0.47 | 1.78 ± 0.67 | 1.12 ± 0.62 | 0.0236 ± 0.0095 | 1.76 ± 0.35
HCI-005.E2 | 1.5 ± 0.29 | 1.46 ± 0.075 | 1.66 ± 0.36 | 1.7 ± 0.3 | 1.24 ± 0.27 | 1.21 ± 0.26 | 0.0085 ± 0.0066 | 1.6 ± 0.35
HCI-017.E2 | 1.6 ± 0.18 | 2 ± 0.041 | 1.8 ± 0.34 | 1.81 ± 0.098 | 1.78 ± 0.1 | 1.7 ± 0.076 | 0.043 ± 0.019 | 1.812 ± 0.011

CTG-3D luminescence at 96 h
Conditions | 12.5 pM | 0.00025 µM | 0.005 µM | 0.1 µM | 1 µM | 10 µM | 100 µM | 625 fM
HCI-001, days in culture: 240 | 1.51 | 1.07 | 0.955 | 1.53 | 1.1 | 0.369 | 0.0412 | 1.73
HCI-001, days in culture: 260 | 2.66 | 1.09 | 1.83 | 1.92 | 1.58 | 0.642 | 0.0822 | 1.64
HCI-001, days in culture: 269 | 1.8 | 1.73 | 1.37 | 1.38 | 0.942 | 0.889 | 0.124 | 1.67
HCI-001, days in culture: 327 | 2.11 | 1.59 | 2.17 | 1.48 | 0.963 | 0.0556 | -0.168 | 2.04
HCI-001, days in culture: 346 | 1.64 | 1.22 | 1.38 | 1.24 | 1.3 | 0.577 | 0.00509 | 1.3
HCI-001, days in culture: 364 | 1.67 | 1.16 | 1.61 | 1.17 | 1.17 | 0.802 | 0.00601 | 1.63
HCI-012, days in culture: 143 | 1.69 | 2.26 | 2.2 | 2.7 | 2.07 | 2.21 | 0.239 | 1.81
HCI-012, days in culture: 162 | 2.02 | 2.3 | 2.33 | 2.56 | 2.17 | 2.21 | 0.134 | 2.94
HCI-012, days in culture: 201 | 3.09 | 2.12 | 1.75 | 1.93 | 2.2 | 0.271 | -0.19 | 1.96
HCI-017.E2, days in culture: 85 | 2.05 | 1.26 | 2.18 | 1.93 | 1.57 | 1.98 | 0.14 | 1.51
HCI-024, days in culture: 105 | 1.44 | 1.51 | 1.24 | 1.47 | 1.01 | 1.1 | 0.182 | 1.59
HCI-024, days in culture: 122 | 1.5 | 2.32 | 1.85 | 1.88 | 1.6 | 1.52 | 0.266 | 2.7
HCI-024, days in culture: 163 | 1.88 | 2.19 | 1.74 | 2.8 | 1.99 | 1.74 | 0.357 | 2.54
